Experimental data as given in paper PMC5681660, “Reduced hepatitis B and D viral entry using clinically applied drugs as novel inhibitors of the bile acid transporter NTCP” (Scientific Reports, 2017).
Where a name gives a salt, the structure may show the parent alone.

How the values were obtained:
human NTCP [1] = target: T1, human NTCP (Homo sapiens, UniProt Q14973); test: Screening taurocholate uptake assay (96-well, [14C]taurocholate, 10 µM drug); conditions: for B-score functional assay: 10 µM drug
T1 sequence (Q14973 1-349): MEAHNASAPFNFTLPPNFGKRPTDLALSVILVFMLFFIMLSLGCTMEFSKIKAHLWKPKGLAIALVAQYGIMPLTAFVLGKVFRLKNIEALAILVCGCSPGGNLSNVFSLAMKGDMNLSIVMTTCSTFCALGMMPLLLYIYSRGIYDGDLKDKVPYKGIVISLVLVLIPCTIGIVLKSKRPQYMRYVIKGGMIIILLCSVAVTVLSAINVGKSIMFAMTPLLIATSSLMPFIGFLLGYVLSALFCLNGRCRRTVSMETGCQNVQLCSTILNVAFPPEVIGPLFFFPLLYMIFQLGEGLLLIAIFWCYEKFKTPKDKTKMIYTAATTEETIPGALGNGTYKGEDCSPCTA

human NTCP [2] = target: T1, human NTCP; test: Screening fluorescent competitive Myrcludex B-FITC binding assay (96-well, 10 µM drug); conditions: 10 µM drug
[3] = Prestwick library screen, B-score of taurocholate uptake
[4] = combined ranking from functional and binding assay B-scores
[5] = Prestwick library screen, B-score of Myrcludex B-FITC binding
[6] = Prestwick library screen, taurocholate uptake
[7] = ranking score beside the functional and binding assay B-scores of the screen
[8] = Prestwick library screen, Myrcludex B-FITC binding
[9] = combined ranking from functional and binding screening assays
[10] = screen, Myrcludex B-FITC binding

Compound | B-score functional assay (human NTCP [1]; [3]) | Ranking score (human NTCP [1]; [4]) | B-score binding assay (human NTCP [2]; [5]) | Ranking score (human NTCP [1]; [9]) | B-score functional assay (human NTCP [1]; screen, taurocholate uptake) | B-score binding assay (human NTCP [2]; [10]) | further results
CC(C)(CO)[C@@H](O)C(=O)NCCCO [Panthenol (D)] | 0.501 | 899.92 | 0.428 | – | – | – | –
CC(=O)Nc1c(I)c(NC(C)=O)c(I)c(C(=O)O)c1I.O.O [Diatrizoic acid dihydrate] | – | – | – | – | – | – | B-score functional assay (human NTCP [1]; [6]): -0.248; Ranking score (human NTCP [1]; [7]): 739.319; B-score binding assay (human NTCP [2]; [8]): 1.833
COc1ccccc1N1CCN(CC(O)COc2cccc3ccccc23)CC1.Cl.Cl (stereo not drawn) [Naftopidil dihydrochloride] | – | – | – | 412.912 | -1.853 | 1.879 | –
C[C@H]1[C@H](NC(=O)/C(=N\OC(C)(C)C(=O)O)c2csc(N)n2)C(=O)N1S(=O)(=O)O [Aztreonam] | 1.332 | 1061.36 | 0.858 | – | – | – | –
Cn1c(=O)c2[nH]cnc2n(C)c1=O [Theophylline monohydrate] | – | – | – | 321.683 | -1.998 | 0.205 | –
CCOC(=O)C1=C[C@]2(CC)CCCN3CCc4c(n1c1ccccc41)[C@@H]32 [Vinpocetine] | – | – | – | 428.448 | 2.672 | -1.57 | –
C/C=C(/C(=C/C)c1ccc(O)cc1)c1ccc(O)cc1 [Dienestrol] | – | – | – | 419.874 | -0.196 | -0.567 | –
O=C(NCC1CCCCN1)c1cc(OCC(F)(F)F)ccc1OCC(F)(F)F (stereo not drawn) [Flecainide acetate] | – | – | – | 448.174 | -1.076 | 0.272 | –
CN(C)CCC(c1ccccc1)c1ccccn1 (stereo not drawn) [Pheniramine maleate] | – | – | – | 447.397 | -0.685 | -0.017 | –
Cc1cc(=O)oc2cc(O)ccc12 [Hymecromone] | – | – | – | 448.437 | -0.811 | 0.036 | –
CCC1(c2ccccc2)C(=O)NCNC1=O [Primidone] | – | – | – | – | – | – | B-score functional assay (human NTCP [1]; [6]): 1.471; Ranking score (human NTCP [1]; [7]): 845.018; B-score binding assay (human NTCP [2]; [8]): -0.009
C[C@H](CCC(=O)O)[C@H]1CC[C@H]2[C@@H]3C(=O)C[C@@H]4CC(=O)CC[C@]4(C)[C@H]3CC(=O)[C@]12C [Dehydrocholic acid] | – | – | – | 309.304 | -1.555 | -0.083 | –
COc1ccc(C2CNC(=O)C2)cc1OC1CCCC1 (stereo not drawn) [Rolipram] | 0.524 | 872.569 | 0.265 | – | – | – | –
CN[C@H]1CC[C@@H](c2ccc(Cl)c(Cl)c2)c2ccccc21 [Sertraline] | – | – | – | 426.035 | 0.805 | -1.357 | –
Clc1cnccn1 [2-Chloropyrazine] | – | – | – | – | – | – | B-score functional assay (human NTCP [1]; [6]): 1.648; Ranking score (human NTCP [1]; [7]): 812.047; B-score binding assay (human NTCP [2]; [8]): -0.068
CCN1CCCC1CNC(=O)c1cc(S(N)(=O)=O)ccc1OC (stereo not drawn) [Sulpiride] | – | – | – | – | – | – | B-score functional assay (human NTCP [1]; [6]): 0.071; Ranking score (human NTCP [1]; [7]): 822.943; B-score binding assay (human NTCP [2]; [8]): 0.598
COCCc1ccc(OCC(O)CNC(C)C)cc1.COCCc1ccc(OCC(O)CNC(C)C)cc1.O=C(O)C(O)C(O)C(=O)O (racemic) [Metoprolol-(+,-) (+)-tartrate salt] | – | – | – | 295.567 | -0.726 | -0.835 | –
O=C(NCCN1CCOCC1)c1ccc(Cl)cc1 [Moclobemide] | – | – | – | – | – | – | B-score functional assay (human NTCP [1]; [6]): 1.399; Ranking score (human NTCP [1]; [7]): 766.363; B-score binding assay (human NTCP [2]; [8]): -0.149
[H]/N=C(/NCCCCC)N/N=C/c1c[nH]c2ccc(OC)cc12 [Tegaserod maleate] | 1.009 | 947.847 | 0.318 | – | – | – | –
Spiramycin | 0.83 | 1002.4 | 0.801 | – | – | – | –
COc1cc2c(cc1OC)C(C)NCC2.Cl (stereo not drawn) | 2.498 | 1023.83 | 0.343 | – | – | – | –
Br.COc1ccc2c(c1)[C@]13CCCC[C@@H]1[C@H](C2)N(C)CC3.O | 0.044 | 928.917 | 2.674 | – | – | – | –
CNCCCC12CCC(c3ccccc31)c1ccccc12 [Maprotiline hydrochloride] | – | – | – | 403.36 | -0.051 | -0.835 | –
